Assay results taken from patent US20080004290A1, “Anti-Cancer Agents” (THE UNIVERSITY OF QUEENSLAND, priority 2003, published 2008).
Read-outs that look alike come from different tables or passages of the source.

Legend:
[1] = system: NFF, neonatal foreskin fibroblasts; assay: Cell survival assay (clonogenic survival, SRB), normal cells; assay type: cell-based, human; conditions: SRB
Method: (§1) The cytotoxicities of the compounds of the invention were determined by clonogenic survival of human cancer cells (MM96L, melanoma) and human normal cells (NFF, neonatal foreskin fibroblasts). Cells were incubated with the compounds at various concentrations of compound (0.01-10 μg/mL) for 24 hours, washed, and then grown for a further four days in the absence of hydroxamic acid before determining cell survival by cell count. The final readout involved staining with sulforhodamine B (SRB), a cost-effective method amenable to automation and high throughput analysis. At the technical level, “cell sensitivity” is often inferred from short term (1-2 day) observations such as apoptosis, which may not be a satisfactory model of clonogenic survival.
(§2) Cell Lines and Culture Medium. All cell lines used in this study have been described previously (Parsons et al., 1986; Todaro et al., 1980; Glenn et al., 2004). All cell lines were cultured in 10% heat-inactivated foetal calf serum (CSL, Australia) in RPMI 1640 medium supplemented with 100 U/mL penicillin, 100 μg/mL streptomycin, and 3 mM HEPES at 5% CO2, 99% humidity at 37° C. Primary human fibroblasts were obtained from neonatal foreskins and cultured in the above medium. Routine mycoplasma tests were performed using Hoechst stain^i and were always negative.
(§3) Cell Survival Assay. Cells were plated into 96-well microtitre plates at 5×10^3 cells/well, and allowed to adhere overnight. Test compounds were added to culture medium at the indicated concentrations, and plates incubated in the above conditions for 24 hours. Following this incubation period, compounds and media were removed, and replaced with fresh culture medium. Cells were then grown for a further 72 hours before assay using sulforhodamine B (SRB; Sigma, St. Louis, Mo.) as previously described. Briefly, the culture medium was removed from the 96-well microtitre plates and the plates washed twice with phosphate buffered saline (PBS), before the cells were fixed with methylated spirits for 15 minutes. The plates were then rinsed with tap water and the fixed cells stained with 50 μL/well of SRB solution (0.4% sulforhodamine B (w/v) in 1% (v/v) acetic acid) over a period of 1 hour. The SRB solution was then removed from the wells and the plates rapidly washed two times with 1% (v/v) acetic acid. Protein bound dye was then solubilised with the addition of 100 μL of 10 mM unbuffered Tris, and incubated for 15 min at 25° C. Plates were then read at 564 nm on a VERSA max tunable microplate reader (Molecular Devices, Sunnyvale, Calif.).

MM96L melanoma cells = assay: Cell survival assay (clonogenic survival, SRB); assay type: cell-based, human; conditions: for SI (Selectivity Index = IC50 (NFF)/IC50 (MM96L)): NFF vs MM96L
Method: as §1, §2, §3

[2] = Homo sapiens, Fibroblast, NFF normal fibroblasts, 24 h with compound, further 72 h growth, read-out: IC50 (uM) NFF
[3] = Homo sapiens, MM96L, MM96L melanoma, 24 h with compound, further 72 h growth, SRB, read-out: IC50 (uM) MM96L
[4] = Homo sapiens, Fibroblast, 24 h, Table 6, 24 hours with compound, further growth, read-out: IC50 (μM) NFF
[5] = Homo sapiens, MM96L, 24 h, Table 6, 24 hours with compound, further growth, SRB, read-out: IC50 (μM) MM96L
[6] = Table 6, IC50 (NFF)/IC50 (MM96L)
[7] = NFF normal fibroblasts, 24 h with compound, further 72 h growth, read-out: IC50 (uM) NFF
[8] = MM96L melanoma, 24 h with compound, further 72 h growth, SRB, read-out: IC50 (uM) MM96L
[9] = Table 8, 24 hours with compound, further growth, read-out: IC50 (μM) NFF
[10] = Table 8, 24 hours with compound, further growth, SRB, read-out: IC50 (μM) MM96
[11] = Table 8, IC50 (NFF)/IC50 (MM96L)
[12] = Table 5, 24 hours with compound, further growth, read-out: IC50 NFF
[13] = Table 5, 24 hours with compound, further growth, SRB, read-out: IC50 MM96L
[14] = Table 5, Selectivity Index = IC50 (NFF)/IC50 (MM96L)

Structure (SMILES): O=C(CCCCC[C@H](NC(=O)CCCc1c[nH]c2ccccc12)C(=O)NCc1ccccc1)NO [Example 163]
- IC50 [1, 2]: 7.03 µM
- IC50 (MM96L melanoma cells; [3]): 1.84 µM
- SI (Selectivity Index = IC50 (NFF)/IC50 (MM96L)) (MM96L melanoma cells): 3.8

Structure (SMILES): CN(C)c1ccc(C(=O)N[C@@H](CSCCCC(=O)NO)C(=O)NC2CCN(Cc3ccccc3)CC2)cc1 [Example 90]
- IC50 [1, 4]: 1.28 ± 0.08 µM
- IC50 (MM96L melanoma cells; [5]): 1.5 ± 0.2 µM
- Selectivity (MM96L melanoma cells; [6]): 0.9

Structure (SMILES): O=C(CCCCC[C@H](NC(=O)c1cccs1)C(=O)NCc1ccccc1)NO [Example 141]
- IC50 [1, 2]: 5.2 µM
- IC50 (MM96L melanoma cells; [3]): 0.892 µM
- SI (Selectivity Index = IC50 (NFF)/IC50 (MM96L)) (MM96L melanoma cells): 5.8

Structure (SMILES): O=C(CCCCC[C@H](NC(=O)c1ccc(C(F)(F)F)cc1)C(=O)Nc1cccc2cccnc12)NO [Example 147]
- IC50 [1, 2]: 0.696 µM
- IC50 (MM96L melanoma cells; [3]): 0.258 µM
- SI (Selectivity Index = IC50 (NFF)/IC50 (MM96L)) (MM96L melanoma cells): 2.7

Structure (SMILES): O=C(CCCCC[C@H](NC(=O)c1cc2ccccc2[nH]1)C(=O)NCc1ccccc1)NO [Example 131]
- IC50 [1, 7]: 0.572 µM
- IC50 (MM96L melanoma cells; [8]): 0.08 µM
- SI (Selectivity Index = IC50 (NFF)/IC50 (MM96L)) (MM96L melanoma cells): 7.1

Structure (SMILES): CN(C)c1ccc(C(=O)N[C@@H](CSCCCC(=O)NO)C(=O)N(Cc2ccccc2)Cc2ccccc2)cc1 [Example 74]
- IC50 [1, 4]: 15.3 ± 0.6 µM
- IC50 (MM96L melanoma cells; [5]): 2.3 ± 0.2 µM
- Selectivity (MM96L melanoma cells; [6]): 6.5

Structure (SMILES): CN(C)c1ccc(C(=O)NC(CCCCCC(=O)NO)C(=O)NC2CCCc3ccccc32)cc1 (racemic) [Example 125]
- IC50 [1, 7]: 1.81 ± 0.07 µM
- IC50 (MM96L melanoma cells; [8]): 0.3 ± 0.1 µM
- SI (Selectivity Index = IC50 (NFF)/IC50 (MM96L)) (MM96L melanoma cells): 6.0

Structure (SMILES): O=C(CCCCC[C@H](NC(=O)c1ccc(C(F)(F)F)cc1)C(=O)NCc1ccccc1)NO [Example 155]
- IC50 [1, 2]: 1.61 µM
- IC50 (MM96L melanoma cells; [3]): 0.665 µM
- SI (Selectivity Index = IC50 (NFF)/IC50 (MM96L)) (MM96L melanoma cells): 2.4

Structure (SMILES): CN(C)c1ccc(C(=O)N[C@@H](CSCCCC(=O)NO)C(=O)Nc2ccncc2)cc1 [Example 77]
- IC50 [1, 4]: 7.2 ± 0.8 µM
- IC50 (MM96L melanoma cells; [5]): 1.8 ± 0.2 µM
- Selectivity (MM96L melanoma cells; [6]): 4.1

Structure (SMILES): CC(C)NC(=O)c1ccc(CNC(=O)[C@H](CSCCCC(=O)NO)NC(=O)c2ccc(N(C)C)cc2)cc1 [Example 103]
- IC50 [1, 9]: 10.1 µM
- IC50 (MM96L melanoma cells; [10]): 1.38 µM
- Selectivity (MM96L melanoma cells; [11]): 7.30

Structure (SMILES): CN(C)c1ccc(C(=O)N[C@@H](CSCCCC(=O)NO)C(=O)NCCc2ccccc2Br)cc1 [Example 84]
- IC50 ([1]; Table 6, 24 hours with compound, further growth, read-out: IC50 (μM) NFF): 3.3 ± 0.3 µM
- IC50 (MM96L melanoma cells; Table 6, 24 hours with compound, further growth, SRB, read-out: IC50 (μM) MM96L): 0.7 ± 0.2 µM
- Selectivity (MM96L melanoma cells; [6]): 4.7

Structure (SMILES): CN(C)c1ccc(C(=O)N[C@@H](CSCCCC(=O)NO)C(=O)NCc2ccc(C(=O)NCc3ccccc3)cc2)cc1 [Example 106]
- IC50 [1, 9]: 11.8 µM
- IC50 (MM96L melanoma cells; [10]): 1.18 µM
- Selectivity (MM96L melanoma cells; [11]): 10.0

Structure (SMILES): O=C(CCCSC[C@H](NC(=O)Cc1ccc(-c2ccccc2)cc1)C(=O)NCc1ccccc1)NO [Example 42]
- IC50 [1, 12]: 21 ± 2 µM
- IC50 (MM96L melanoma cells; [13]): 12 ± 3 µM
- Selectivity (MM96L melanoma cells; [14]): 1.8

Structure (SMILES): O=C(CCCCC[C@H](NC(=O)c1cc2ccccc2[nH]1)C(=O)NC1(Cc2ccccc2)CCCC1)NO [Example 129]
- IC50 [1, 2]: 1.6 ± 0.2 µM
- IC50 (MM96L melanoma cells; [3]): 0.9 ± 0.2 µM
- SI (Selectivity Index = IC50 (NFF)/IC50 (MM96L)) (MM96L melanoma cells): 1.7

Structure (SMILES): CN(C)c1ccc(C(=O)N[C@@H](CSCCCC(=O)NO)C(=O)Nc2ccccc2Cc2ccccc2)cc1 [Example 64]
- IC50 [1, 4]: 6.8 ± 0.4 µM
- IC50 (MM96L melanoma cells; [5]): 3.5 ± 0.2 µM
- Selectivity (MM96L melanoma cells; [6]): 1.9

Structure (SMILES): O=C(CCCSC[C@H](NC(=O)C1CC1)C(=O)NCc1ccccc1)NO [Example 55]
- IC50 [1, 12]: > 100 µM
- IC50 (MM96L melanoma cells; [13]): 21 ± 2 µM
- Selectivity (MM96L melanoma cells; [14]): >5

Structure (SMILES): O=C(CCCSC[C@H](NC(=O)c1cccnc1)C(=O)NCc1ccccc1)NO [Example 36]
- IC50 [1, 12]: > 100 µM
- IC50 (MM96L melanoma cells; [13]): 12.8 ± 0.8 µM
- Selectivity (MM96L melanoma cells; [14]): >8

Structure (SMILES): CN(C)c1ccc(C(=O)N[C@@H](CSCCCC(=O)NO)C(=O)Nc2cccc3c2CCCC3)cc1 [Example 66]
- IC50 [1, 4]: 2.2 ± 0.3 µM
- IC50 (MM96L melanoma cells; [5]): 0.5 ± 0.1 µM
- IC50 (MM96L melanoma cells; Homo sapiens, MM96L, most preferred compounds, exemplary examples, read-out: potency of IC50 against the MM96 melanoma cells): ≤ 0.5 µM
- Selectivity (MM96L melanoma cells; [6]): 4.4
